The values below come from patent publication US20250025443A1, “COMPOUNDS AND METHODS FOR TREATING CORONA VIRUSES” (CLEAR CREEK BIO, INC., priority 2021, published 2025).

This test concerns the target SARS-CoV-2 Papain-Like Protease (PLpro) (Severe acute respiratory syndrome coronavirus 2 (2019-nCoV) (SARS-CoV-2), UniProt P0DTD1). The experiment in a line: biochemical. Conditions: PLpro enzymatic fluorescence assay; class symbols; read-out: PLpro IC50.

In the case of `Cc1ccc(OC[C@@H]2CCN2)cc1C(=O)NC1(c2cc(-c3ccn(-c4ccccc4)n3)cc3ncccc23)CC1` [Compound 664, (S)-5-(Azetidin-2-ylmethoxy)-2-methyl-N-(1-(7-(1-phenyl-1H-pyrazol-3-yl)quinolin-5-yl)cyclopropyl)benzamide], the IC50 was < 0.1 µM.

Consider `Cc1ccc(OC[C@@H]2CCN2)cc1C(=O)NC1(c2cc(-c3cnn(C)c3)cc3ncccc23)CC1` [Compound 665, (S)-5-(Azetidin-2-ylmethoxy)-2-methyl-N-(1-(7-(1-methyl-1H-pyrazol-4-yl)quinolin-5-yl)cyclopropyl)benzamide], for which the IC50 is < 0.1 µM. The figure for `Cc1ccc(OC[C@@H]2CCN2)cc1C(=O)NC1(c2cc(-c3ccc(F)c(Cl)c3)cc3ncccc23)CC1` [Compound 666, (S)-5-(Azetidin-2-ylmethoxy)-N-(1-(7-(3-chloro-4-fluorophenyl)quinolin-5-yl)cyclopropyl)-2-methylbenzamide] is < 0.1 µM; for `Cc1ccc(OC[C@@H]2CCN2)cc1C(=O)NC1(c2cc(/C=C/C3CC3)cc3ncccc23)CC1` [Compound 667, (S,E)-5-(Azetidin-2-ylmethoxy)-N-(1-(7-(2-cyclopropylvinyl)quinolin-5-yl)cyclopropyl)-2-methylbenzamide] it is < 0.1 µM; for `Cc1ccc(OC[C@@H]2CCN2C)cc1C(=O)NC1(c2cc(-c3sccc3Cl)cc3ncccc23)CC1` [Compound 668, (S)-N-(1-(7-(3-Chlorothiophen-2-yl)quinolin-5-yl)cyclopropyl)-2-methyl-5-((1-methylazetidin-2-yl)methoxy)benzamide] it is < 0.1 µM.

`Cc1ccc(OC[C@@H]2CCN2C)cc1C(=O)NC1(c2cc(-c3ccc(CN4CCCC4)s3)cc3ncccc23)CC1` [Compound 669, (S)-2-Methyl-5-((1-methylazetidin-2-yl)methoxy)-N-(1-(7-(5-(pyrrolidin-1-ylmethyl)thiophen-2-yl)quinolin-5-yl)cyclopropyl)benzamide]: the IC50 was < 0.1 µM. For `Cc1ccc(OC[C@@H]2CCN2C)cc1C(=O)NC1(c2cc(-c3cnn(C)c3)cc3ncccc23)CC1` [Compound 670, (S)-2-Methyl-N-(1-(7-(1-methyl-1H-pyrazol-4-yl)quinolin-5-yl)cyclopropyl)-5-((1-methylazetidin-2-yl)methoxy)benzamide], the IC50 was < 0.1 µM.

`Cc1cc(-c2cc(C3(NC(=O)c4cc(OC[C@@H]5CCN5C)ccc4C)CC3)c3cccnc3c2)c(C)o1` [Compound 671, (S)—N-(1-(7-(2,5-Dimethylfuran-3-yl)quinolin-5-yl)cyclopropyl)-2-methyl-5-((1-methylazetidin-2-yl)methoxy)benzamide]: the IC50 was < 0.1 µM. Then `Cc1ccc(OC[C@@H]2CCN2C)cc1C(=O)NC1(c2cc(-c3ccc(=O)[nH]c3)cc3ncccc23)CC1` [Compound 672, (S)-2-Methyl-5-((1-methylazetidin-2-yl)methoxy)-N-(1-(7-(6-oxo-1,6-dihydropyridin-3-yl)quinolin-5-yl)cyclopropyl)benzamide], with < 0.1 µM; and `Cc1nnc(-c2cc(C3(NC(=O)c4cc(OC[C@@H]5CCN5)ccc4C)CC3)c3cccnc3c2)s1` [Compound 673, (S)-5-(Azetidin-2-ylmethoxy)-2-methyl-N-(1-(7-(5-methyl-1,3,4-thiadiazol-2-yl)quinolin-5-yl)cyclopropyl)benzamide], with < 0.1 µM; and `Cc1ccc(OC[C@@H]2CCN2)cc1C(=O)NC1(c2cc(-c3ccc(=O)[nH]c3)cc3ncccc23)CC1` [Compound 674, (S)-5-(Azetidin-2-ylmethoxy)-2-methyl-N-(1-(7-(6-oxo-1,6-dihydropyridin-3-yl)quinolin-5-yl)cyclopropyl)benzamide], with < 0.1 µM.

Turning to `Cc1ccc(OC[C@@H]2CCN2)cc1C(=O)NC1(c2cc(-c3ccc(F)cc3)cc3ncccc23)CC1` [Compound 675, (S)-5-(Azetidin-2-ylmethoxy)-N-(1-(7-(4-fluorophenyl)quinolin-5-yl)cyclopropyl)-2-methylbenzamide], the IC50 is < 0.1 µM. Then `Cc1ccc(OC[C@@H]2CCN2C)cc1C(=O)NC1(c2cc(C(C)O)cc3ncccc23)CC1` (stereo partly drawn) [Compound 676, N-(1-(7-(1-Hydroxyethyl)quinolin-5-yl)cyclopropyl)-2-methyl-5-(((S)-1-methylazetidin-2-yl)methoxy)benzamide], with < 0.1 µM; and `CCc1cc(C2(NC(=O)c3cc(OC[C@@H]4CCN4)ccc3C)CC2)c2cccnc2c1` [Compound 677, (S)-5-(Azetidin-2-ylmethoxy)-N-(1-(7-ethylquinolin-5-yl)cyclopropyl)-2-methylbenzamide], with < 0.1 µM.

As for `Cc1ccc(OC[C@@H]2CCN2C)cc1C(=O)NC1(c2cc(-c3ccc(F)cc3)cc3ncccc23)CC1` [Compound 678, (S)—N-(1-(7-(4-Fluorophenyl)quinolin-5-yl)cyclopropyl)-2-methyl-5-((1-methylazetidin-2-yl)methoxy)benzamide], the IC50 is < 0.1 µM. As for `Cc1nnc(-c2cc(C3(NC(=O)c4cc(OC[C@@H]5CCN5)ccc4C)CC3)c3cccnc3c2)o1` [Compound 680, (S)-5-(Azetidin-2-ylmethoxy)-2-methyl-N-(1-(7-(5-methyl-1,3,4-oxadiazol-2-yl)quinolin-5-yl)cyclopropyl)benzamide], the IC50 was < 0.1 µM. On to `Cc1ccc(OC[C@@H]2CCN2C)cc1C(=O)NC1(c2cc(-c3ncccn3)cc3ncccc23)CC1` [Compound 681, (S)-2-Methyl-5-((1-methylazetidin-2-yl)methoxy)-N-(1-(7-(pyrimidin-2-yl)quinolin-5-yl)cyclopropyl)benzamide], for which the IC50 was < 0.1 µM. The figure for `Cc1ccc(OC[C@@H]2CCN2)cc1C(=O)NC1(c2cc(-c3ncccn3)cc3ncccc23)CC1` [Compound 682, (S)-5-(Azetidin-2-ylmethoxy)-2-methyl-N-(1-(7-(pyrimidin-2-yl)quinolin-5-yl)cyclopropyl)benzamide] is < 0.1 µM; for `Cc1ccc(OC[C@@H]2CCN2C)cc1C(=O)NC1(c2cc(N3CCCC3)cc3ncccc23)CC1` [Compound 683, (S)-2-Methyl-5-((1-methylazetidin-2-yl)methoxy)-N-(1-(7-(pyrrolidin-1-yl)quinolin-5-yl)cyclopropyl)benzamide] it is < 0.1 µM; for `Cc1ccc(OC[C@@H]2CCN2C)cc1C(=O)NC1(c2cc(/C=C/C3CC3)cc3ncccc23)CC1` [Compound 684, (S,E)-N-(1-(7-(2-Cyclopropylvinyl)quinolin-5-yl)cyclopropyl)-2-methyl-5-((1-methylazetidin-2-yl)methoxy)benzamide] it is < 0.1 µM. Turning to `Cc1ccc(OC[C@@H]2CCN2)cc1C(=O)NC1(c2cc(-c3ccc4ncnn4c3)cc3ncccc23)CC1` [Compound 685, (S)-N-(1-(7-([1,2,4]Triazolo[1,5-a]pyridin-6-yl)quinolin-5-yl)cyclopropyl)-5-(azetidin-2-ylmethoxy)-2-methylbenzamide], the IC50 is < 0.1 µM. Then `Cc1ccc(OC[C@@H]2CCN2)cc1C(=O)NC1(c2cc(-c3ccc4nccn4c3)cc3ncccc23)CC1` [Compound 686, (S)-5-(Azetidin-2-ylmethoxy)-N-(1-(7-(imidazo[1,2-a]pyridin-6-yl)quinolin-5-yl)cyclopropyl)-2-methylbenzamide], with < 0.1 µM. As to `Cc1ccc(OC[C@@H]2CCN2C)cc1C(=O)NC1(c2cc(-c3ccc(F)c(Cl)c3)cc3ncccc23)CC1` [Compound 687, (S)—N-(1-(7-(3-Chloro-4-fluorophenyl)quinolin-5-yl)cyclopropyl)-2-methyl-5-((1-methylazetidin-2-yl)methoxy)benzamide], the IC50 is < 0.1 µM. On to `Cc1ccc(OC[C@@H]2CCN2)cc1C(=O)NC1(c2cc(-c3cnc(N4CCCCC4)nc3)cc3ncccc23)CC1` [Compound 688, (S)-5-(Azetidin-2-ylmethoxy)-2-methyl-N-(1-(7-(2-(piperidin-1-yl)pyrimidin-5-yl)quinolin-5-yl)cyclopropyl)benzamide], for which the IC50 was < 0.1 µM. The figure for `Cc1ccc(OC[C@@H]2CCN2)cc1C(=O)NC1(c2cc(-c3cncc(N4CCOCC4)c3)cc3ncccc23)CC1` [Compound 689, (S)-5-(Azetidin-2-ylmethoxy)-2-methyl-N-(1-(7-(5-morpholinopyridin-3-yl)quinolin-5-yl)cyclopropyl)benzamide] is < 0.1 µM; for `Cc1cccc(/C=C/c2cc(C3(NC(=O)c4cc(OC[C@@H]5CCN5C)ccc4C)CC3)c3cccnc3c2)c1` [Compound 690, (S,E)-2-Methyl-5-((1-methylazetidin-2-yl)methoxy)-N-(1-(7-(3-methylstyryl)quinolin-5-yl)cyclopropyl)benzamide] it is < 0.1 µM. Then `Cc1nnc(-c2cc(C3(NC(=O)c4cc(OC[C@@H]5CCN5C)ccc4C)CC3)c3cccnc3c2)s1` [Compound 691, (S)-2-Methyl-N-(1-(7-(5-methyl-1,3,4-thiadiazol-2-yl)quinolin-5-yl)cyclopropyl)-5-((1-methylazetidin-2-yl)methoxy)benzamide], with < 0.1 µM; and `Cc1nnc(-c2cc(C3(NC(=O)c4cc(OC[C@@H]5CCN5C)ccc4C)CC3)c3cccnc3c2)o1` [Compound 693, (S)-2-Methyl-N-(1-(7-(5-methyl-1,3,4-oxadiazol-2-yl)quinolin-5-yl)cyclopropyl)-5-((1-methylazetidin-2-yl)methoxy)benzamide], with < 0.1 µM; and `Cc1ccc(OC[C@@H]2CCN2)cc1C(=O)NC1(c2cc(-c3ncco3)cc3ncccc23)CC1` [Compound 694, (S)-5-(Azetidin-2-ylmethoxy)-2-methyl-N-(1-(7-(oxazol-2-yl)quinolin-5-yl)cyclopropyl)benzamide], with < 0.1 µM.

Turning to `Cc1ccc(OC[C@@H]2CCN2)cc1C(=O)NC1(c2cc(-c3cc4ccccc4s3)cc3ncccc23)CC1` [Compound 695, (S)-5-(Azetidin-2-ylmethoxy)-N-(1-(7-(benzo[b]thiophen-2-yl)quinolin-5-yl)cyclopropyl)-2-methylbenzamide], the IC50 is < 0.1 µM. With `CC#Cc1cc(C2(NC(=O)c3cc(OC[C@@H]4CCN4)ccc3C)CC2)c2cccnc2c1` [Compound 696, (S)-5-(Azetidin-2-ylmethoxy)-2-methyl-N-(1-(7-(prop-1-yn-1-yl)quinolin-5-yl)cyclopropyl)benzamide], the IC50 was < 0.1 µM.
